One experiment concerns the target T1, AQ STING (G230A-R293Q) (Homo sapiens, UniProt Q86WV6, G230A/H232R/R293Q).
T1 construct: truncated human WT STING or AQ STING (amino acid residues 140-343); 8xHis (N, cleaved yes); SUMO (N, cleaved yes); made in house; host or cells: E. coli Rosetta-gami B (DE3)
In words: Differential Scanning Fluorimetry with AQ STING. In kind it is binding. The conditions noted are these: thermal shift, truncated human AQ STING 0.1 mg/ml, 150 μM CDN. The protocol: (§1) Purified PCR products were cleaved with restriction enzymes BamHI (cat. # R0136S, NEB, Ipswich, USA) and NotI (cat. # R0189S, NEB, Ipswich, USA) and cloned into the pSUMO vector linearized with the identical enzymes.
(§2) DNase I (cat. # D5025, Sigma Aldrich, Czech Republic) and RNase A (cat. # R6513, Sigma Aldrich, Czech Republic) were added (final concentration 50 μg/ml) together with MgCl2 (final concentration 5 mmol·l^−1) to the homogenate and bacteria were lysed using French Press G-M™ High-Pressure Cell Press Homogenizer (1500 psi, 3 cycles). […] The resin was poured into a chromatography column, washed with 50 ml buffer A (50 mmol·l^−1 TrisCl (pH 8.0), 800 mmol·l^−1 NaCl, 3 mmol·l^−1 3-mercaptoethanol; 10% glycerol; 20 mmol·l^−1 imidazole) and 8-His-SUMO tagged STING proteins were eluted with 15 ml buffer A containing 300 mmol·l^−1 imidazole. […] Proteins were concentrated with Amicon® Ultra-15 10 K device (cat. # UFC901008, Merck Millipore, Billerica, USA) and flash frozen in liquid N2.
(§3) 20 μL solutions of the reaction mixtures were pipetted in triplicates into 96 well optical reaction plates and thermal denaturation of samples were performed on real time PCR cycler (LightCycler® 480 Instrument II—Roche, Basel, Switzerland). The first derivative of the thermal denaturation curves was performed to calculate denaturing temperatures of STING-CDN complexes and STING apoproteins. The thermal shift for each CDN was calculated by subtracting the average denaturing temperature of STING apoprotein from the average denaturing temperature of STING CDN complex.
(In general: In DSF a fluorescence change marks the thermal transition of the protein.)

The target of experiment [1] is T2, WT STING (Homo sapiens, UniProt Q86WV6, H232R). In words: Digitonin assay using 293T wtSTING-FL reporter cells. Conditions: 293T wtSTING-FL cells, ISRE firefly luciferase reporter, digitonin buffer 30 min, then 5 hours. The experiment is classed as cell-based. The text has this: Two complementary oligonucleotides of the sequence […] […] […] […] […] […] […] The oligonucleotides were mixed in equal molar amounts, hybridized, and cleaved by restriction endonucleases HindIII (cat. #. R0104S, NEB, Ipswich, USA) and BglII (cat. # R0144S, NEB, Ipswich, USA). Ultimately, they were ligated into plasmid pGL4.27 (cat. # E6651, Promega, Madison, USA) linearized with the same enzymes. As result the sequence with four ISRE sites was placed upstream of the minimum promoter of firefly luciferase reporter gene.
After 5 minutes incubation at room temperature (RT), 250 μL of the mixture was added dropwise to the cells in one well. Cells were incubated 36 hours at 37° C. with 5% CO2, and then detached with 0.05% Trypsin and 0.22 g/L EDTA (both cat. # L0941, Biowest, Riverside, USA).
Transfected cells were seeded onto poly-D-lysine coated six well plates at density 50,000 cells per 1 cm^2 in DMEM medium with high glucose containing 10% heat inactivated FBS, 30 μg/mL blasticidin (cat. # ant-bl-05, InvivoGen, San Diego, USA), 0.06 mg/ml Penicillin G and 0.1 mg/ml Streptomycin Sulfate (both cat. #. L0018, Biowest, Riverside, USA). The medium was replenished every 3-4 days until visible colonies of cells resistant to blasticidin were formed.
Blasticidin resistant cells stably expressing WT STING were further transfected with pGL64.27-4×ISRE plasmid following the same procedure as described above. […] Homogeneous culture of stably double transfected cells was prepared by limiting dilution of cells in 96 well plates and wells with cells were selected that originated from a single cell.
The medium was removed next day and three fold serial dilutions of compounds in Digitonin buffer containing 50 mmol·l^−1 HEPES (cat. # H3375, Sigma Aldrich, Czech Republic) pH 7.0, 100 mmol·l^−1 KCl, 3 mmol·l^−1 MgCl2, 0.1 mmol·l^−1 DTT (cat. #D0632, Sigma Aldrich, Czech Republic), 85 mmol·l^−1 Sucrose (cat. # S7903, Sigma Aldrich, Czech Republic), 0.2% BSA (cat. # A2153, Sigma Aldrich, Czech Republic), 1 mmol·l^−1 ATP (cat. # A1852, Sigma Aldrich, Czech Republic), 0.1 mmol·l^−1 GTP (cat. # G8877, Sigma Aldrich, Czech Republic), and 10 μg/mL Digitonin A (cat. # D141, Sigma Aldrich, Czech Republic) were added to the cells. The buffer was removed after 30 minutes incubation at 37° C. with 5% CO2, the cells were washed once with 100 μl of cultivation medium, and 100 μl of medium was added to each well. The plates with cells were incubated for 5 hours at 37° C. with 5% CO2, 50 μl of the medium was removed and 30 μl of ONE-Glo™ Luciferase Assay System reagent (cat. # E6120, Promega, Madison, USA) was added to each well. Luminesce was read on Synergy H1 (Biotek, Winooski, USA).
Target sequence in this assay (Q86WV6 whole entry H232R): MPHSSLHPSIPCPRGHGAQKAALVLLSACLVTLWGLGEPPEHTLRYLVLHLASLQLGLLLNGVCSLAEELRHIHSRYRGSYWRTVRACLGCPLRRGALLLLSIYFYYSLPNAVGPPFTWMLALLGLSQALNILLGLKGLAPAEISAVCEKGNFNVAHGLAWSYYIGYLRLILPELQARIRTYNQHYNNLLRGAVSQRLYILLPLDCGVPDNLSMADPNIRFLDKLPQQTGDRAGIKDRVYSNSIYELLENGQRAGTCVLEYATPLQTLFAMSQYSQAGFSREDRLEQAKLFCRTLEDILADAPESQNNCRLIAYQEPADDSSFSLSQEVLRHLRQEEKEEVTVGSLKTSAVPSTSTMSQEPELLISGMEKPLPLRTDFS

The target of experiment [2] is T2, WT STING. Nature of the experiment: Differential Scanning Fluorimetry with WT STING. More on the design: truncated human WT STING or AQ STING (amino acid residues 140-343); 8xHis (N, cleaved yes); SUMO (N, cleaved yes); made in house; host or cells: E. coli Rosetta-gami B (DE3). Conditions: thermal shift, truncated human WT STING 0.1 mg/ml, 150 μM CDN. The experiment is classed as binding. On the procedure: as §1, §2, §3
Target sequence in this assay (Q86WV6 140-343 H232R): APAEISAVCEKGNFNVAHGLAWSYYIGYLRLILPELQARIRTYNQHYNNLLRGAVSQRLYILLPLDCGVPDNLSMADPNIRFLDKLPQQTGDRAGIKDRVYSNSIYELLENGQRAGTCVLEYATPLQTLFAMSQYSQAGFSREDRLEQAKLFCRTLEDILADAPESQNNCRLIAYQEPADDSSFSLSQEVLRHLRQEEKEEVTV

Bounds are passed on as bounds.

T1 sequence (Q86WV6 140-343 G230A/H232R/R293Q): as the sequence (Q86WV6 140-343 H232R) above, with G91A, R154Q counted along it

For orientation: EC50 means the concentration that produces a half-maximal response. As to `Nc1nc2c(ncn2[C@@H]2O[C@@H]3COP(=O)(O)O[C@@H]4[C@H](O)[C@@H](COP(=O)(O)O[C@@H]2[C@@H]3O)O[C@H]4n2cnc3c(N)ncnc32)c(=O)[nH]1` [2′2′-cGAMP, reference compound], on AQ STING (G230A-R293Q), the “DSF ΔTm AQ STING” value was 19.4 °C. The half-maximal effective concentration (EC50) at WT STING [1] was determined as 30 nM. Moreover, the “DSF ΔTm WT STING” value on WT STING [2] worked out at 11.5 °C.

As for `Nc1ncnc2c1ncn2[C@@H]1O[C@@H]2COP(=O)(O)O[C@H]3[C@@H](O)[C@H](n4cnc5c(N)ncnc54)O[C@@H]3COP(=O)(O)O[C@H]2[C@H]1O` [3′3′-c-di-AMP, reference compound], the “DSF ΔTm AQ STING” value at AQ STING (G230A-R293Q) was determined as 9.3 °C. In addition, the concentration for a half-maximal effect (EC50) on WT STING [1] is 300 nM. In addition, at WT STING [2], the “DSF ΔTm WT STING” value was found to be 2.6 °C.

As to `Nc1nc2c(ncn2[C@@H]2O[C@@H]3COP(=O)(O)O[C@H]4[C@@H](O)[C@H](n5cnc6c(=O)[nH]c(N)nc65)O[C@@H]4COP(=O)(O)O[C@H]3[C@H]2O)c(=O)[nH]1` [3′3′-c-di-GMP, reference compound], on AQ STING (G230A-R293Q), the “DSF ΔTm AQ STING” value came to 7.7 °C. For the same molecule, at WT STING [1], the EC50 worked out at 5800 nM. The “DSF ΔTm WT STING” value on WT STING [2] stood at 2.6 °C.

With `Nc1nc2c(ncn2[C@@H]2O[C@@H]3COP(=O)(O)O[C@@H]4[C@H](O)[C@@H](COP(=O)(O)CO[C@@H]2[C@@H]3O)O[C@H]4n2cnc3c(N)ncnc32)c(=O)[nH]1` [Example 2, 2-amino-9-((1R,6R,8R,9R,15R,17R,18R,19R)-17-(6-amino-9H-purin-9-yl)-3,12,18,19-tetrahydroxy-3,12-dioxido-2,4,7,10,13,16-hexaoxa-3,12-diphosphatricyclo[13.2.1.1^6,9]nonadecan-8-yl)-1,9-dihydro-6H-purin-6-one], the “DSF ΔTm AQ STING” value at AQ STING (G230A-R293Q) turned out to be 16.5 °C. Moreover, the EC50 on WT STING [1] stood at 150 nM. Also, the “DSF ΔTm WT STING” value at WT STING [2] was found to be 9.0 °C.

For the molecule `Nc1nc2c(ncn2[C@@H]2O[C@@H]3COP(=O)(O)COC4C(O)[C@@H](COP(=O)(O)OC2C3O)O[C@H]4n2cnc3c(N)ncnc32)c(=O)[nH]1` (stereo partly drawn) [Example 3, 2-amino-9-((1R,6R,8R,9R,15R,17R,18R,19R)-8-(6-amino-9H-purin-9-yl)-3,12,18,19-tetrahydroxy-3,12-dioxido-2,4,7,10,13,16-hexaoxa-3,12-diphosphatricyclo[13.2.1.1^6]9nonadecan-17-yl)-1,9-dihydro-6H-purin-6-one], the “DSF ΔTm AQ STING” value on AQ STING (G230A-R293Q) is 19.0 °C. Further, the EC50 on WT STING [1] was 50 nM. Besides, the “DSF ΔTm WT STING” value on WT STING [2] came out at 12.0 °C.

In the case of `Nc1nc2c(ncn2[C@@H]2O[C@@H]3COP(=O)(O)CO[C@@H]4[C@H](O)[C@@H](COP(=O)(O)CO[C@@H]2[C@@H]3O)O[C@H]4n2cnc3c(=O)[nH]c(N)nc32)c(=O)[nH]1` [Example 4, 9,9′-((1R,7R,9R,10R,16R,18R,19R,20R)-4,13,19,20-tetrahydroxy-4,13-dioxido-2,5,8,1 1,14,17-hexaoxa-4,13-diphosphatricyclo[14.2.1.1^7,10]icosane-9,18-diyl)bis(2-amino-1,9-dihydro-6H-purin-6-one)], the “DSF ΔTm AQ STING” value at AQ STING (G230A-R293Q) is 0.3 °C. The EC50 on WT STING [1] was > 50000 nM. Moreover, the “DSF ΔTm WT STING” value at WT STING [2] turned out to be 0.3 °C.

Turning to `Nc1ncnc2c1ncn2[C@@H]1O[C@@H]2COP(=O)(O)CO[C@H]3[C@H](O)[C@@H](COP(=O)(O)O[C@@H]1[C@@H]2O)O[C@H]3n1cnc2c(N)ncnc21` [Example 5, (1R,6R,8R,9S,15R,17R,18R,19R)-8,17-bis(6-amino-9H-purin-9-yl)-3,12,18,19-tetrahydroxy-2,4,7,10,13,16-hexaoxa-3,12-diphosphatricyclo[13.2.1.1^6,9]nonadecane 3,12-dioxide], the “DSF ΔTm AQ STING” value at AQ STING (G230A-R293Q) is 0.2 °C. Also, at WT STING [1], the EC50 is > 50000 nM. Besides, the “DSF ΔTm WT STING” value on WT STING [2] is −0.9 °C.

With `Nc1ncnc2c1ncn2[C@@H]1O[C@@H]2COP(=O)(O)CO[C@H]3[C@H](O)[C@@H](COP(=O)(O)CO[C@H]1[C@@H]2O)O[C@H]3n1cnc2c(N)ncnc21` [Example 6, (1S,7R,9R,10S,16R,18R,19R,20R)-9,18-bis(6-amino-9H-purin-9-yl)-4,13,19,20-tetrahydroxy-2,5,8,11,14,17-hexaoxa-4,13-diphosphatricyclo[14.2.1.1^7,10]icosane 4,13-dioxide], the “DSF ΔTm AQ STING” value at AQ STING (G230A-R293Q) was −0.3 °C. Also, the EC50 at WT STING [1] was > 50000 nM. For the same molecule, the “DSF ΔTm WT STING” value at WT STING [2] worked out at 0.0 °C.

As to `Nc1ncnc2c1ncn2[C@@H]1O[C@@H]2COP(=O)(O)CO[C@@H]3[C@@H](O)[C@@H](COP(=O)(O)CO[C@@H]1[C@H]2O)O[C@H]3n1cnc2c(N)ncnc21` [Example 7, (1R,7R,9R,10R,16R,18R,19S,20S)-9,18-bis(6-amino-9H-purin-9-yl)-4,13,19,20-tetrahydroxy-2,5,8,11,14,17-hexaoxa-4,13-diphosphatricyclo[14.2.1.1^7,10]icosane 4,13-dioxide], at AQ STING (G230A-R293Q), the “DSF ΔTm AQ STING” value was determined as 0.0 °C. For the same molecule, the EC50 at WT STING [1] is > 50000 nM. Besides, the “DSF ΔTm WT STING” value on WT STING [2] was 0.0 °C.

As for `Nc1ncnc2c1ncn2[C@@H]1O[C@@H]2COP(=O)(O)O[C@@H]3[C@H](F)[C@@H](COP(=O)(O)CO[C@@H]1[C@@H]2F)O[C@H]3n1cnc2c(N)ncnc21` [Example 8, (1S,6R,8R,9S,15R,17R,18R,19R)-8,17-bis(6-amino-9H-purin-9-yl)-18,19-difluoro-3,12-dihydroxy-2,4,7,10,13,16-hexaoxa-3,12-diphosphatricyclo[13.2.1.1^6,9]nonadecane 3,12-dioxide], the “DSF ΔTm AQ STING” value on AQ STING (G230A-R293Q) is 11.5 °C. The 50% effective concentration (EC50) at WT STING [1] was 1100 nM. Further, the “DSF ΔTm WT STING” value on WT STING [2] worked out at 3.6 °C.

`Nc1nc2c(ncn2[C@@H]2O[C@@H]3COP(=O)(O)CO[C@@H]4[C@H](F)[C@@H](COP(=O)(O)O[C@@H]2[C@@H]3F)O[C@H]4n2cnc3c(N)ncnc32)c(=O)[nH]1` [Example 9, 2-amino-9-((1S,6R,8R,9S,15R,17R,18R,19R)-8-(6-amino-9H-purin-9-yl)-18,19-difluoro-3,12-dihydroxy-3,12-dioxido-2,4,7,10,13,16-hexaoxa-3,12-diphosphatricyclo[13.2.1.1^6,9]nonadecan-17-yl)-1,9-dihydro-6H-purin-6-one]: the “DSF ΔTm AQ STING” value at AQ STING (G230A-R293Q) was determined as 22.9 °C. Further, the EC50 at WT STING [1] is 30 nM. At WT STING [2], the “DSF ΔTm WT STING” value is 15.2 °C.

For the origin of these results see patent publication US20190322697A1, “2'2'-CYCLIC DINUCLEOTIDES” (Institute of Organic Chemistry and Biochemistry, ASCR, V.V.I, priority 2018, published 2019).
